Measurements as given in PMC10035904, “Synthesis of novel sulphamethoxazole derivatives and exploration of their anticancer and antimicrobial properties” (PLOS ONE, 2023).
In brackets after ≈: the same amount, converted by molar mass.

What was measured:
[1] = tested on: HF, PPC-1, and CaKi-1 cells; test: MTT cell viability screen at 100 μM (cell line not given); format: cell-based, human; conditions: 72 h, cell line not stated
Experimental: The effect of synthesized compounds on cell viability was studied using 3-(4,5-dimethylthiazol-2-yl)-2,5-diphenyltetrazolium bromide (MTT; Sigma-Aldrich Co., St Louis, MO, USA) assay, as described elsewhere. Briefly, HF, PPC-1, and CaKi-1 cells were seeded in 96-well plates (Corning) in triplicates at a volume of 100 μL at a concentration of 4 × 10^3 cells/well. After 24 h of incubation, the cells were treated with 100 μM of tested compounds. After 72 h, the MTT reagent (at 0.5 mg/mL concentration) has been added to the wells, and cells were incubated for 4 h. Then the medium was aspirated, and the formed purple crystals were dissolved in 100 μL DMSO (Sigma-Aldrich Co.). The absorbance was measured at 570 and 630 nm using a multi-detection microplate reader. The compound effect on cell viability was calculated using a formula (1): Relativecellviability%=A−A0/ANC−A0 (1) Where: […]

[2] = tested on: Enterococcus faecalis ATCC 29212; test: Serial broth dilution in liquid medium, E. faecalis; format: cell-based; conditions: ATCC29212, Mueller-Hinton broth, 24 hours, 50% reduction of microbial growth, n = 3
Experimental: (§1) Antibacterial and antifungal susceptibility to the compound 16b was tested using a serial broth dilution technique in Mueller-Hinton broth II (BBL, Cockeysville, USA), as described elsewhere. All procedures were done in aseptic conditions. Standard bacterial and fungal cultures were used: Staphylococcus aureus ATCC 25923, Staphylococcus epidermidis ATCC 12228, Escherichia coli ATCC 25922, Enterococcus faecalis ATCC 29212, Klebsiella pneumoniae ATCC 33499, Pseudomonas aeruginosa ATCC 27853, Proteus mirabilis ATCC 12459, Bacillus cereus ATCC 8035, and Candida albicans ATCC 60193. Standard cultures of nonsporic bacteria S. aureus, S. epidermidis, E. coli, E. faecalis, K. pneumoniae, P. aeruginosa and P. mirabilis were cultivated for 20–24 hours at 37°C in Mueller-Hinton Agar (BBL, Cockeysville, USA). A bacterial suspension was prepared from cultivated bacterial cultures in physiological solution according to turbidity standard 0.5 McFarland. Standard culture of sporic bacteria B. cereus was cultivated for 7 days at 37°C in Mueller-Hinton II Agar. […] Then the absorbance was measured at 600 nm using a multi-detection microplate reader. […]

[3] = tested on: Candida albicans ATCC 60193; test: Serial broth dilution in liquid medium, C. albicans; format: cell-based; conditions: ATCC60193, Mueller-Hinton broth, 48 hours, 50% reduction of microbial growth, n = 3
Experimental: as §1

[4] = tested on: Escherichia coli ATCC 25922; test: Serial broth dilution in liquid medium, E. coli; format: cell-based; conditions: ATCC25922, Mueller-Hinton broth, 24 hours, n = 3
Experimental: as §1

[5] = tested on: Pseudomonas aeruginosa ATCC 27853; test: Serial broth dilution in liquid medium, P. aeruginosa; format: cell-based; conditions: ATCC27853, Mueller-Hinton broth, 24 hours, n = 3
Experimental: as §1

[6] = tested on: Bacillus cereus ATCC 8035; test: Serial broth dilution in liquid medium, B. cereus; format: cell-based; conditions: Mueller-Hinton broth, 24 hours; result in words
Experimental: as §1

[7] = tested on: Staphylococcus aureus ATCC 25923; test: Serial dilution on solid agar, S. aureus; format: cell-based; conditions: ATCC25923, solid Mueller-Hinton agar, 24 hours
Experimental: (§2) Antimicrobial activity of compound 16b on solid agar was tested using the same microbial cultures, and the same suspension preparation procedure, as described in above section. All procedures were done in aseptic conditions.
(§3) Mueller-Hinton agar was boiled and kept at to 37 °C during the whole procedure. Compound 16b solution was prepared in DMSO right before experiment. The Agar was mixed with compound solution at different ratios to make the final compound concentrations of 1 mM, 400 μM, 200 μM and 100 μM. Then 10 ml of prepared solution was poured into sterile Petri dishes (85 mm in diameter) and kept in aseptic conditions while the agar solidified. The agar with 0.5% of DMSO served as a negative control. With the help of loop standard microbial cultures by 0.1 ml were poured on the surface of prepared agar with investigative compound. Then Petri dishes were kept for 24 hours in thermostatic conditions.
(§4) The minimal dilution, i.e. the lowest concentration in μg/mL of the investigative and comparison compounds that inhibited visible growth of microorganisms was the minimal inhibitory concentration (MIC).

[8] = tested on: Staphylococcus epidermidis ATCC 12228; test: Serial dilution on solid agar, S. epidermidis; format: cell-based; conditions: ATCC12228, solid Mueller-Hinton agar, 24 hours
Experimental: as §2, §3, §4

[9] = tested on: Escherichia coli ATCC 25922; test: Serial dilution on solid agar, E. coli; format: cell-based; conditions: ATCC25922, solid Mueller-Hinton agar, 24 hours
Experimental: as §2, §3, §4

[10] = tested on: Enterococcus faecalis ATCC 29212; test: Serial dilution on solid agar, E. faecalis; format: cell-based; conditions: ATCC29212, solid Mueller-Hinton agar, 24 hours
Experimental: as §2, §3, §4

[11] = tested on: Pseudomonas aeruginosa ATCC 27853; test: Serial dilution on solid agar, P. aeruginosa; format: cell-based; conditions: ATCC27853, solid Mueller-Hinton agar, 24 hours
Experimental: as §2, §3, §4

[12] = tested on: Proteus mirabilis ATCC 12459; test: Serial dilution on solid agar, P. mirabilis; format: cell-based; conditions: ATCC12459, solid Mueller-Hinton agar, 24 hours
Experimental: as §2, §3, §4

- EC50 [2]: 90 ± 6 µM
- EC50 [3]: 85.5 ± 7.1 µM
- EC50 [4]: > 100 µM
- EC50 [5]: > 100 µM
- MIC [7]: 100 µM (≈ 46.2 µg/mL)
- MIC [8]: 100 µM (≈ 46.2 µg/mL)
- MIC [9]: 400 µM (≈ 185 µg/mL)
- MIC [10]: 1000 µM (≈ 462 µg/mL)
- MIC [11]: > 1000 µM
- MIC [12]: 1000 µM (≈ 462 µg/mL)
- melting point: 221 to 222 °C
SMILES: Cc1cc(NS(=O)(=O)c2ccc(NCCC(=O)NN=Cc3ccc([N+](=O)[O-])o3)cc2)no1 [Compound 16b, N-(5-methylisoxazol-3-yl)-4-((3-(2-((5-nitrofuran-2-yl)methylene)hydrazineyl)-3-oxopropyl)amino)-benzenesulfonamide]
- reduced cell viability up to about [1]: about 40%
- sensitivity of B. cereus in liquid medium [6]: most sensitive
